# Patent US9801901B2, “Alginate oligomers for use in overcoming multidrug resistance in bacteria” (priority 2009, dated 2017)
# Read-outs that look alike come from different tables or passages of the source. Marks after values point to notes of the source that are not given here.
# Key:
# [1] = system: V10 (Egypt) Acinetobacter lwoffii; test: MIC assay, CAMHB with alginate oligomer, no visible growth; type: cell-based; conditions: Table 5, V10 MDR Acin. lwoff
# [2] = system: Acinetobacter baumannii MDR ACB from Libya (V4); test: as above; type: cell-based
# Excerpt: The study described in Example 1 was repeated with the following strains of bacteria and antibiotics as detailed in Tables 4, 5 and 6.
# The study described in Example 1 was repeated with the following strains of Acinetobacter baumannii, antibiotics and M-block alginate oligomer in place of OligoG CF-5/20 as detailed in Table 7. The M-block oligomer is 100% M with a DPn of 15 to 18,
# MDR Providencia stuartii = test: MIC-assay, Mueller-Hinton broth with G-block alginate, 384-well, OD600 (Table 11); type: cell-based; conditions: Providencia stuartii (IR57 India, V7) MDR
# Excerpt: (§1) Minimum inhibitory concentration (MICs) of different antibiotics for strains of E. coli and Providencia stuartii displaying MDR phenotypes in the presence of varying concentrations of OligoCF-5/20 (0-10%). (MIC values are expressed in μg ml^−1).
# [3] = system: strains of E. coli displaying MDR phenotypes; test: as above; type: cell-based; conditions: Escherichia coli, Escherichia coli (5702, Wales, V11) MDR, read-out: MIC
# Excerpt: as §1
# [4] = system: Pseudomonas aeruginosa ATCC 39324, mucoid type strain (R79); test: MIC assay, CAMHB with alginate oligomer, no visible growth; type: cell-based; conditions: R79
# [5] = system: V9 (Egypt) Acinetobacter baumannii; test: as above; type: cell-based; conditions: Table 5, V9 MDR Acin. baum
# [6] = system: Acinetobacter lwoffii (Egypt, V10); test: MIC-assay, Mueller-Hinton broth with G-block alginate, 384-well, OD600
# [7] = system: PA01 Pseudomonas aeruginosa ATCC 15692; test: MIC assay, two-fold antibiotic dilutions in CAMHB with alginate oligomer, no visible growth; type: cell-based; conditions: PA01
# [8] = system: Pseudomonas aeruginosa (R22, PSA, V1); test: MIC-assay, Mueller-Hinton broth with G-block alginate, 384-well, OD600
# [9] = system: Staphylococcus aureus (MRSA) U50; test: MIC-assay, Mueller-Hinton broth with G-block alginate, 384-well, OD600 (Table 12); type: cell-based; conditions: MRSA 1040s, U50 MDR
# Excerpt: Minimum inhibitory concentration (MICs) of different antibiotics for strains of Streptococcus oralis and Staphylococcus aureus (MRSA) displaying MDR phenotypes in the presence of varying concentrations of OligoCF-5/20 (0-10%). (MIC values are expressed in μg ml^−1).
# [10] = system: Acinetobacter baumannii (Egypt, V9); test: MIC-assay, Mueller-Hinton broth with G-block alginate, 384-well, OD600
# [11] = system: strains of Klebsiella pneumoniae displaying MDR phenotypes; test: MIC-assay, Mueller-Hinton broth with G-block alginate, 384-well, OD600 (Table 10); type: cell-based
# Excerpt: Minimum inhibitory concentration (MICs) of different antibiotics for strains of Klebsiella pneumoniae displaying MDR phenotypes in the presence of varying concentrations of OligoCF-5/20 (0-10%). (MIC values are expressed in μg ml^−1).
# [12] = system: Burkholderia cepacia (1322, V23); test: MIC-assay, Mueller-Hinton broth with G-block alginate, 384-well, OD600
# [13] = system: V12 5725 (Wales) Klebsiella pneumoniae; test: MIC assay, CAMHB with alginate oligomer, no visible growth; type: cell-based; conditions: Table 5, V12 MDR Kleb pneu
# [14] = Table 9, G-block (OligoCF-5/20) 0%
# [15] = Table 9, G-block (OligoCF-5/20) 2%
# [16] = Table 9, G-block (OligoCF-5/20) 6%
# [17] = Table 9, G-block (OligoCF-5/20) 10%
# [18] = Table 8, G-block (OligoCF-5/20) 2%
# [19] = Table 8, G-block (OligoCF-5/20) 6%
# [20] = Table 8, G-block (OligoCF-5/20) 10%
structure (smiles),measurement,setting,value
CC[C@H]1OC(=O)[C@H](C)[C@@H](O[C@H]2C[C@@](C)(OC)[C@@H](O)[C@H](C)O2)[C@H](C)[C@@H](O[C@@H]2O[C@H](C)C[C@H](N(C)C)[C@H]2O)[C@](C)(O)C[C@@H](C)CN(C)[C@H](C)[C@@H](O)[C@]1(C)O [Azithromycin],MIC,"[1]; Acinetobacter lwoffii, OligoCF-5/20 0G, read-out: MIC",< 0.25 µg/mL
same,MIC,[1]; OligoCF-5/20 +2% G,<0.25 µg/mL
same,MIC,[1]; OligoCF-5/20 +6% G,<0.25 µg/mL
same,MIC,[1]; OligoCF-5/20 +10% G,<0.25 µg/mL
same,MIC,"[2]; Acinetobacter baumannii, Table 1, V4 ACB (Libya), OligoCF-5/20 0G, read-out: MIC",8 µg/mL
same,MIC,"[2]; Acinetobacter baumannii, Table 1, V4 ACB (Libya), OligoCF-5/20 +2% G, read-out: MIC",2 µg/mL
same,MIC,"[2]; Acinetobacter baumannii, Table 1, V4 ACB (Libya), OligoCF-5/20 +6% G, read-out: MIC",< 0.25 µg/mL
same,MIC,"[2]; Acinetobacter baumannii, Table 1, V4 ACB (Libya), OligoCF-5/20 +10% G, read-out: MIC",< 0.25 µg/mL
same,MIC,"[2]; Acinetobacter baumannii, Table 7, V4 MDR Acin baum (Libya), M-block oligomer 0M, read-out: MIC",8 µg/mL
same,MIC,"[2]; Acinetobacter baumannii, Table 7, V4 MDR Acin baum (Libya), M-block oligomer +2% M, read-out: MIC",8 µg/mL
same,MIC,"[2]; Acinetobacter baumannii, Table 7, V4 MDR Acin baum (Libya), M-block oligomer +6% M, read-out: MIC",8 µg/mL
same,MIC,"[2]; Acinetobacter baumannii, Table 7, V4 MDR Acin baum (Libya), M-block oligomer +10% M, read-out: MIC",2 µg/mL
same,effect in combination with alginate oligomers,"[2]; Example 1, Acinetobacter baumannii isolate",more positive effect
same,MIC,"[2]; Table 2, V4 ACB (Libya), OligoCF-5/20 0G",8^†
same,MIC,"[2]; Table 2, V4 ACB (Libya), OligoCF-5/20 +2% G",2^†
same,MIC,"[2]; Table 2, V4 ACB (Libya), OligoCF-5/20 +6% G",<0.25^†
same,MIC,"[2]; Table 2, V4 ACB (Libya), OligoCF-5/20 +10% G",<0.25†
same,MIC,MDR Providencia stuartii; G-block (OligoCF-5/20) 0%,< 2 µg/mL
same,MIC,MDR Providencia stuartii; G-block (OligoCF-5/20) 2%,< 2 µg/mL
same,MIC,MDR Providencia stuartii; G-block (OligoCF-5/20) 6%,< 2 µg/mL
same,MIC,MDR Providencia stuartii; G-block (OligoCF-5/20) 10%,< 2 µg/mL
same,MIC,[3]; G-block (OligoCF-5/20) 0%,16 µg/mL
same,MIC,[3]; G-block (OligoCF-5/20) 2%,16 µg/mL
same,MIC,[3]; G-block (OligoCF-5/20) 6%,8 µg/mL
same,MIC,[3]; G-block (OligoCF-5/20) 10%,16 µg/mL
same,MIC,"[4]; Pseudomonas aeruginosa, ATCC39324, Table 1, OligoCF-5/20 0G, read-out: MIC",128 µg/mL
same,MIC,"[4]; Pseudomonas aeruginosa, ATCC39324, Table 1, OligoCF-5/20 +2% G, read-out: MIC",64 µg/mL
same,MIC,"[4]; Pseudomonas aeruginosa, ATCC39324, Table 1, OligoCF-5/20 +6% G, read-out: MIC",16 µg/mL
same,MIC,"[4]; Pseudomonas aeruginosa, ATCC39324, Table 1, OligoCF-5/20 +10% G, read-out: MIC",4 µg/mL
same,MIC,"[4]; Table 2, OligoCF-5/20 0G",128^†
same,MIC,"[4]; Table 2, OligoCF-5/20 +2% G",64^†
same,MIC,"[4]; Table 2, OligoCF-5/20 +6% G",16^†
same,MIC,"[4]; Table 2, OligoCF-5/20 +10% G",4^†
same,MIC,"[5]; Acinetobacter baumannii, OligoCF-5/20 0G, read-out: MIC",16 µg/mL
same,MIC,[5]; OligoCF-5/20 +2% G,4^† μg/ml
same,MIC,[5]; OligoCF-5/20 +6% G,0.5^† μg/ml
same,MIC,[5]; OligoCF-5/20 +10% G,<0.25 µg/mL
same,MIC,[6]; [14],< 1 µg/mL
same,MIC,[6]; [15],< 1 µg/mL
same,MIC,[6]; [16],< 1 µg/mL
same,MIC,[6]; [17],< 1 µg/mL
same,MIC,"[7]; Pseudomonas aeruginosa, ATCC15692, Table 1, OligoCF-5/20 0G, read-out: MIC",128 µg/mL
same,MIC,"[7]; Pseudomonas aeruginosa, ATCC15692, Table 1, OligoCF-5/20 +2% G, read-out: MIC",64 µg/mL
same,MIC,"[7]; Pseudomonas aeruginosa, ATCC15692, Table 1, OligoCF-5/20 +6% G, read-out: MIC",16 µg/mL
same,MIC,"[7]; Pseudomonas aeruginosa, ATCC15692, Table 1, OligoCF-5/20 +10% G, read-out: MIC",4 µg/mL
same,MIC,"[7]; Table 2, OligoCF-5/20 0G",128^†
same,MIC,"[7]; Table 2, OligoCF-5/20 +2% G",64^†
same,MIC,"[7]; Table 2, OligoCF-5/20 +6% G",16^†
same,MIC,"[7]; Table 2, OligoCF-5/20 +10% G",4^†
same,MIC,[8]; [18],32 µg/mL
same,MIC,[8]; [19],32 µg/mL
same,MIC,[8]; [20],8 µg/mL
same,MIC,[9]; G-block (OligoCF-5/20) 0%,512 µg/mL
same,MIC,[9]; G-block (OligoCF-5/20) 2%,256 µg/mL
same,MIC,[9]; G-block (OligoCF-5/20) 6%,256 µg/mL
same,MIC,[9]; G-block (OligoCF-5/20) 10%,256 µg/mL
same,MIC,[10]; [14],4 µg/mL
same,MIC,[10]; [15],< 1 µg/mL
same,MIC,[10]; [16],< 1 µg/mL
same,MIC,[10]; [17],< 1 µg/mL
same,MIC,"[11]; Klebsiella pneumoniae (5712, Wales, V12) MDR, G-block (OligoCF-5/20) 0%, read-out: MIC",16 µg/mL
same,MIC,"[11]; Klebsiella pneumoniae (5712, Wales, V12) MDR, G-block (OligoCF-5/20) 2%, read-out: MIC",16 µg/mL
same,MIC,"[11]; Klebsiella pneumoniae (5712, Wales, V12) MDR, G-block (OligoCF-5/20) 6%, read-out: MIC",16 µg/mL
same,MIC,"[11]; Klebsiella pneumoniae (5712, Wales, V12) MDR, G-block (OligoCF-5/20) 10%, read-out: MIC",16 µg/mL
same,MIC,"[11]; Klebsiella pneumoniae (IR25, India, V6) MDR, G-block (OligoCF-5/20) 0%",128 µg/mL
same,MIC,"[11]; Klebsiella pneumoniae (IR25, India, V6) MDR, G-block (OligoCF-5/20) 2%, read-out: MIC",64 µg/mL
same,MIC,"[11]; Klebsiella pneumoniae (IR25, India, V6) MDR, G-block (OligoCF-5/20) 6%, read-out: MIC",32 µg/mL
same,MIC,"[11]; Klebsiella pneumoniae (IR25, India, V6) MDR, G-block (OligoCF-5/20) 10%, read-out: MIC",16 µg/mL
same,MIC,"[11]; Klebsiella pneumoniae (K3, India, V8) MDR, G-block (OligoCF-5/20) 0%, read-out: MIC",16 µg/mL
same,MIC,"[11]; Klebsiella pneumoniae (K3, India, V8) MDR, G-block (OligoCF-5/20) 2%, read-out: MIC",8 µg/mL
same,MIC,"[11]; Klebsiella pneumoniae (K3, India, V8) MDR, G-block (OligoCF-5/20) 6%, read-out: MIC",16 µg/mL
same,MIC,"[11]; Klebsiella pneumoniae (K3, India, V8) MDR, G-block (OligoCF-5/20) 10%, read-out: MIC",16 µg/mL
same,MIC,"[12]; Table 8, G-block (OligoCF-5/20) 0%",64 µg/mL
same,MIC,[12]; [18],32 µg/mL
same,MIC,[12]; [19],32 µg/mL
same,MIC,[12]; [20],8 µg/mL
same,MIC,"[13]; Klebsiella pneumoniae, OligoCF-5/20 0G, read-out: MIC",32 µg/mL
same,MIC,[13]; OligoCF-5/20 +2% G,8 µg/mL
same,MIC,[13]; OligoCF-5/20 +6% G,32 µg/mL
same,MIC,[13]; OligoCF-5/20 +10% G,32 µg/mL
